Assay results: US9593069B2, “Cyclohexane-1,3-diones for use in the treatment of amyotrophic lateral sclerosis” (Northwestern University, priority 2009, dated 2017)
In brackets after ≈: the same amount, converted by molar mass. Read-outs that look alike come from different tables or passages of the source. Peptide text beside a SMILES is read from it. * marks the point of attachment. Cbz = O=C(OCc1ccccc1)*

Columns and labels:
[1] = system: PC12 cells that express mutant G93A SOD1; test: High throughput cytotoxicity protection assay (PC12 Protection Assay); type: cell-based
From the text: Cultured cells are utilized to conduct high throughput assays for compounds that protect against mutant SOD1-induced cytotoxicity. Two assays are used: first, in the cytotoxicity protection assay, compounds are screened for their ability to protect cells from the cytotoxic effects of aggregated mutant SOD1, irrespective of mechanism of drug action. Second, in the protein aggregation assay, compounds are screened for their ability to reduce aggregation of mutant SOD1. The high throughput cytotoxicity protection assay is the primary screen and compounds active in the primary screen (and their analogs) move forward into the secondary screen for protein aggregation.
(§1) The high throughput cytotoxicity protection assay was carried out in PC12 cells that express mutant G93A SOD1 as a YFP fusion protein from a doxycycline-inducible promoter (Matsumoto et al., J. Cell. Biol. 2005, 171, 75). […] This idea was tested by examining the sensitivity of PC12 cells to SOD1 aggregates in the presence and absence of proteasome inhibitor MG132. PC12 cells expressing no SOD1, wild type SOD1, G85R SOD1 or G93A SOD1 were grown with or without MG132 (FIG. 1). Cells expressing no SOD1, wild type SOD1 and G85R SOD1 were relatively insensitive to MG132, with an IC50 of approximately 400 nM. […] In these cells, protein aggregation was detected after 24 h and loss of cell viability was detected at approximately 48 h. […] The ability of protein aggregates to induce cell death was examined by treating G93A SOD1-expressing cells with MG132 for 24 h, removing the MG132 by washing and assaying cell viability after another 24 h. Because the loss of cell viability was similar following MG132 removal (FIG. 1, part C), it is likely that mutant SOD1 aggregates contribute directly to cytotoxicity in PC12 cells.
(§2) PC12 cells expressing G93A SOD1 were treated with 100 nM MG132 with or without co-treatment with geldanamycin or radicicol. […] Statistical analysis of the data produced a Z′ value of 0.55, which would predict good performance as a positive control in a high throughput screen (Zhang et al., J. Biomol. Screen 1999, 4(2), 67-73).

primary cortical neurons = test: Neuronal penetration assay (protection from MG132 toxicity); type: cell-based; settings: for Different from control at 5 SD*: primary cortical neurons, toxic dose of MG132, 5 SD = Standard Deviation (5σ)
Description: Neurons are a highly differentiated cell type, and it has been commonly observed that many chemical structures are unable to penetrate into these cells. In many embodiments, a drug used to treat a neurodegenerative disease should desirably penetrate into neurons.
A neuronal penetration assay was developed as follows. […] In order to determine if this compound could protect primary cortical neurons from MG132 toxicity primary cortical neurons were treated with a toxic dose of MG132 together with various concentrations of 5-(3,5-bis(trifluoromethyl)phenyl)cyclohexane-1,3-dione. […] Analogs of 5-(3,5-bis(trifluoromethyl)phenyl)cyclohexane-1,3-dione were then prepared and tested to determine whether chemical modifications would lead to a compound with neuronal cell penetrating ability. […] As summarized in Table 2 below, these analogs also retained protective activity against mutant SOD1 toxicity.

[2] = In vivo pharmacological properties
[3] = system: PC12 cells expressing G93A SOD1; test: MG132 sensitivity, cell survival by viability stain calcein-AM; type: cell-based; settings: for toxicity (cell survival): 100 nM
Description: (§3) FIGS. 1A-C. Proteasome inhibition is selectively toxic to PC12 cells expressing mutant G93A SOD1. Cell survival was determined using the viability stain calcein-AM.
as §1

[4] = system: PC12 cells expressing no SOD1, wild type SOD1 and G85R SOD1; test: as above; type: cell-based; settings: Rattus norvegicus, PC-12, read-out: IC50 (loss of cell viability)
Description: as §3, §1

[5] = system: PC12 cells expressing G85R SOD1; test: Mutant SOD1 direct protein aggregation assay; type: cell-based
From the text: Compounds that are active in the above assay could theoretically protect against mutant SOD1-induced cytotoxicity through a number of mechanisms, including the following: 1) Compounds could nonspecifically block or reverse protein aggregation via chaperone induction, as observed for radicicol and geldanamycin 2) Compounds could block or reverse the aggregation of a specific aggregated protein form 3) Compounds could interfere with an event downstream of protein aggregation that plays a critical role in mutant SOD1-induced cytotoxicity (e.g., proteasome function). 4) Compounds could act directly on SOD1 in a manner that prevents mutant SOD1 aggregation. These possibilities were tested using an assay that directly measures protein aggregation. In addition, unlike the high throughput cytotoxicity protection assay, the protein aggregation assay is based on G85R SOD1; this broadens the scope of the screening strategy, and should eliminate compounds with highly specific activity (i.e., G93A SOD1 limited) against protein aggregation.
(§4) In PC12 cells that express wild-type SOD1, SOD1 was diffusely localized throughout the cell (Matsumoto et al., J. Cell. Biol 2005, 171(1), 75-85). […] Therefore, these effects are likely to be due to MG132-induced proteasome inhibition, and not due to an off-target effect of MG132.
(§5) The identification of a positive control is a crucial step in assay development. Thus, PC12 cells expressing G85R or G93A mutant SOD1 were treated with MG132 to induce protein aggregation, and then co-treated with candidate chemical suppressors of protein aggregation. […] Both compounds induce heat shock transcription factor HSF-1, which in turn induces the heat shock response (FIG. 4). Treatment with radicicol reduced the proportion of cells with aggregates from 75% to 25%, a sufficient difference to allow visual scoring for compounds with efficacy equal to or greater than radicicol.
To allow this assay to be used in a high-throughput manner, a Cellomics Arrayscan® high content microscopy system was used for screening and quantification. […]

[6] = system: PC12 cells expressing G93A mutant SOD1; test: Mutant SOD1 direct protein aggregation assay; type: cell-based
Description: as §2, §4, §5

[7] = system: PC12 cells expressing wild-type SOD1; test: Mutant SOD1 direct protein aggregation assay; type: cell-based
From the text: as §4

Solubility = type: physicochemical; settings: aqueous solution
Description: Because compounds are stored in DMSO, it is necessary to determine aqueous solubility of initial hit compounds and their analogs. High solubility in aqueous solution is necessary for high GI absorption, bioavailability, and for chemical formulation. Compounds should be soluble in aqueous solution at >10 μg/ml. Solubility of >50 μg/ml is preferred.

[8] = Human metabolic potential; type: in vitro ADME
Description: (§6) Liver Cytochrome P450 (CYP450) enzymes are the major route for xenobiotic metabolism and microsomal and hepatocyte stability is the best predictor of pharmacokinetic half-life. Cross-species comparisons of metabolism in liver microsomes can predict potential issues with liver toxicity in humans. Selected active compounds are tested in liver microsomes from efficacy species (mouse), toxicity species (rat, dog, monkey), and humans for metabolic stability.

[9] = Mouse metabolic potential; type: in vitro ADME
Description: as §6

Plasma stability = type: in vitro ADME
Description: Plasma stability of active compounds is assessed in efficacy species (mouse), toxicity species (rat, dog, monkey), and human cells.

Caco-2 = Caco-2 permeability; type: in vitro ADME
Description: High membrane permeability is required for effective GI absorption and optimal bioavailability. Passive permeability is typically assessed in the PAMPA artificial membrane assay (Kansy et al., J. Med. Chem. 2002, 45(8), 1712-1722). Cell-based permeability determinations using the Caco-2 cell assay are more resource intensive but more predictive of active transport or efflux in vivo (Artursson et al., Adv. Drug. Deliv. Rev. 2001, 46(1-3), 27-43). Caco-2 assays are performed as needed during SAR development.

[10] = Rattus norvegicus, PC-12; read-out: PC12 Protection Assay (Average EC50)

## O=C1CC(=O)CC(C2CC2c2cc(C(F)(F)F)cc(C(F)(F)F)c2)C1 (stereo not drawn)
[1]; [10]
  EC50: ~3500 nM
Primary cortical neurons
  Different from control at 5 SD*: YES

## CCCCCCCCCCC(=O)OC1=CC(=O)CC(c2cc(C(F)(F)F)cc(C(F)(F)F)c2)C1 (stereo not drawn)
[1]; [10]
  EC50: ~1500 nM

## CC(Oc1cc(C(F)(F)F)cc(C(F)(F)F)c1)C1CC(=O)CC(=O)C1 (stereo not drawn)
[1]; Rattus norvegicus, PC-12, read-out: PC12 Protection Assay (Average EC50)
  EC50: ~4000 nM
Primary cortical neurons
  Different from control at 5 SD*: YES

## O=C1CC(=O)CC(c2cc(C(F)(F)F)cc(C(F)(F)F)c2)C1 [5-(3,5-bis(trifluoromethyl)phenyl)cyclohexane-1,3-dione]
[1]; Rattus norvegicus, PC-12; read-out: potency
  EC50: ~1500 nM
[1]; toxic effects of MG132
  protection of cultured PC12 cells / protective activity against mutant SOD1 toxicity: protects cultured PC12 cells from the toxic effects of MG132
Primary cortical neurons; various concentrations, FIG. 6
  protection of primary cortical neurons from MG132 toxicity: no dose of this compound was effective in protecting the primary cortical neurons
[2]; blood
  half-life: ~3.5 h
[2]; in vivo
  blood brain barrier penetration: penetration of the blood brain barrier
  volume of distribution in vivo: surprisingly small volume of distribution
[2]; in vivo, po
  oral availability: good oral availability

## CC(C)C[C@@H](C=O)NC(=O)[C@H](CC(C)C)NC(=O)[C@H](CC(C)C)NC(=O)OCc1ccccc1 [MG132] (Cbz-Leu-Leu-Leu-aldehyde)
[3]; 24 hr, any of the cell lines
  toxicity (cell survival): no toxicity
[3]; after 48 hours
  toxicity (cell survival): selectively toxic to the G93A SOD1 cell line
[3]; G93A SOD1 vs no SOD1, wild type SOD1, G85R SOD1 cells
  sensitivity of G93A SOD1 cells relative to the other cell lines: approximately 5 fold
[3]; Rattus norvegicus, PC-12, read-out: IC50 (loss of cell viability)
  IC50: ~75 nM
[4]
  IC50: ~400 nM
[5]; cells expressing G85R SOD1
  cells containing protein aggregates after treatment: up to 75%
[6]; cells expressing G93A mutant SOD1
  cells with protein aggregates following treatment: 75%
[7]
  protein aggregation after treatment: no aggregation was observed

## CC(C)C[C@H](NC(=O)[C@H](Cc1ccccc1)NC(=O)c1cnccn1)B(O)O [bortezomib]
[3]
  sensitivity of PC12 cell lines to proteasome inhibitor, compared with MG132: Qualitatively similar results

## O=C1CC(=O)CC(c2cc(C(F)(F)F)cc(C(F)(F)F)c2)C1 [drawing 215]
[1]; [10]
  EC50: ~1500 nM

## O=C1CC(=O)CC(c2cc(C(F)(F)F)cc(C(F)(F)F)c2)C1 [drawing 217]
[1]; Rattus norvegicus, PC-12; read-out: Potency (EC50)
  EC50: 700 nM
Solubility
  solubility: 500 µM (≈ 162 µg/mL)
[8]
  Human Metabolic Potential: low
[8]; liver microsomes, read-out: Human Metabolic Potential T1/2
  half-life: > 3 h
[9]
  Mouse Metabolic Potential: low
[9]; liver microsomes, read-out: Mouse Metabolic Potential T1/2
  half-life: > 3 h
Plasma stability
  Plasma Stability: medium
Caco-2
  Caco-2 predicted permeability: high predicted permeability
Caco-2; A − B
  Caco-2 A − B: 38 ×10⁻⁶ cm/s

## C[C@@H]1C[C@H]2O[C@@H]2/C=C\C=C\C(=O)Cc2c(Cl)c(O)cc(O)c2C(=O)O1 [radicicol]
[1]; co-treatment with 100 nM MG132
  cell viability of G93A SOD1 cells under MG132: increased cell viability in a dose-dependent manner
[1]; co-treatment with 100 nM MG132; listed as Radicicol
  cell viability of G93A SOD1 cells under MG132: protects
[5]; G93A or G85R SOD1 cells, MG132 co-treatment
  suppression of MG132-induced mutant SOD1 aggregation: aggregates are reduced
[5]; PC12 cells expressing G85R or G93A mutant SOD1, MG132 co-treatment, 75% without
  proportion of cells with aggregates on co-treatment: 25%
[6]; G93A SOD1 cells, 100 nM MG132
  formation of protein aggregates: reduced formation of protein aggregates
